The results in this text go back to article PMC10215199 (Antioxidants, 2023).

Structures can show the parent of a compound that is named as a salt. A value given as a limit tells only on which side of the number the result lay.

One test addresses T1, recombinant human MAO-B (Homo sapiens, UniProt P27338).
T1 construct: purchased Sigma Aldrich
T1 sequence (P27338 1-520): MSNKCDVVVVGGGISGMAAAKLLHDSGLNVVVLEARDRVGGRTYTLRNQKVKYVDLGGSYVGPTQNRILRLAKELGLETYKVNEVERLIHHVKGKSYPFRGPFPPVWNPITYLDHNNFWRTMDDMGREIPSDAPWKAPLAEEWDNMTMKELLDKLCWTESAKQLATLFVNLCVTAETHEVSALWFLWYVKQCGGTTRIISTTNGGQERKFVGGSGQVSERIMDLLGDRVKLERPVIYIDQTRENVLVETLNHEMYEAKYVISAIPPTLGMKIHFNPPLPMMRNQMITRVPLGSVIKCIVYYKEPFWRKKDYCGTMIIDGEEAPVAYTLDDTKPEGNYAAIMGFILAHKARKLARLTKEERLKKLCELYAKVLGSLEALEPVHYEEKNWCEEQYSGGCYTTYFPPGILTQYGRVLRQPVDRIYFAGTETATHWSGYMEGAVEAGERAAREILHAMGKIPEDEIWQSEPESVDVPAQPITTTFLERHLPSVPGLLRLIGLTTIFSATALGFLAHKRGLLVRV
The test can be described thus: biochemical. To be noted: ±sem; for inhibition at 10 µM: single dose concentration of 10 µM; for IC50: five doses.

The target of another test is T2, recombinant human MAO-A (Homo sapiens, UniProt P21397).
T2 sequence (P21397 1-527): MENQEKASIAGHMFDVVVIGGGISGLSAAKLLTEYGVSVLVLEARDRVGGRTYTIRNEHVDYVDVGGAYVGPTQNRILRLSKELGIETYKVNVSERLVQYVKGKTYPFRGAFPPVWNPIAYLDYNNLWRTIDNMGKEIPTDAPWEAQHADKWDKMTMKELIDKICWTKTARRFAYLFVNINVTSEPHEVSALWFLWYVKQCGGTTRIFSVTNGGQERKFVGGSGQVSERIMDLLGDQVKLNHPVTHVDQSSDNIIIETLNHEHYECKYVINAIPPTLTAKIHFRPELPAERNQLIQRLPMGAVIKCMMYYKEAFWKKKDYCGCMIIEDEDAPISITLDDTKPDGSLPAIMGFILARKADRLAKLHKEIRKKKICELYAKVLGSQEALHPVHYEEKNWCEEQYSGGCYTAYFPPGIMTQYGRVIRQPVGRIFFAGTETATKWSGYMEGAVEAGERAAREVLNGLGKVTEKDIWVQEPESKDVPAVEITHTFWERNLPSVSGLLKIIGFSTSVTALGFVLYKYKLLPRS
The test can be described thus: Monoamine oxidase-A inhibition assay (Amplex red fluorescence). It is filed as biochemical. To be noted: ±sem; for inhibition at 1 µM: single dose concentration of 1 µM, NI = no measured inhibition, read-out: % Inhibition MAO-A; for inhibition at 100 µM: read-out: MAO-A % Inhibition; for IC50: read-out: MAO-A IC50. As for the experimental part: Two isoforms of MAOs, namely MAO-A and MAO-B, are expressed in CNS, showing different substrate specificity. Consequently, different pharmacological effects can be elicited depending on the inhibited MAO isoform. Therefore, the prepared O^6-aminoalkyl-hispidol analogs were evaluated against both recombinant human MAO-A and MAO-B isoforms following the well-established spectrophotometric method.
2. Biological evaluations
2.1. In vitro assay of human monoamine oxidases inhibition
The MAO activity was quantified by measuring fluorescence intensity evoked by Amplex red reaction in which Amplex red reacts with hydrogen peroxide from the MAO reaction to produce highly fluorescent resorufin. The test compound in DMSO (final concentration: 1 nM – 10 μM or 10 nM – 100 μM ) and hMAO enzyme (Sigma Aldrich, St. Louis, MO, USA) in 50 mM sodium phosphate buffer (pH 7.4, final protein amount: ~1.25 μg of MAO-A/well and 2.5 μg of MAO-B/well) were loaded on 96-well black plate and incubated for 15 min at 37 °C. Then working solution of 200 μM Amplex Red (Cayman, Ann Arbor, MI, USA), 1 U/mL horseradish peroxidase (Sigma-Aldrich) and 1 mM substrate (p-tyramine for MAO-A, benzylamine for MAO-B, Sigma-Aldrich) in 50 mM sodium phosphate buffer (pH 7.4) was added and incubated for 20 min at 37 °C in the dark. The fluorescence was measured using a microplate reader (SpectraMax®i3, Molecular Device, San Jose, CA, USA) with an excitation at 545 nm and an emission at 590 nm. […]
of compounds were determined as the mean ± S.E.M. in triplicate from the dose-response inhibition curves using SigmaPlot® 13.0.

[1] abbreviates: single dose concentration of 100 µM.

As to `COc1ccc(/C=C2\Oc3cc(OCCN4CCCC4)ccc3C2=O)cc1` [Compound 3aj], the inhibition at 10 µM on recombinant human MAO-B worked out at 39.26 ± 0.03%. At recombinant human MAO-A, the inhibition at 1 µM came to 3.26 ± 0.75%.
Regarding `COc1cc(/C=C2\Oc3cc(OCCN4CCCCC4)ccc3C2=O)cc(OC)c1OC` [Compound 3bd], at recombinant human MAO-B, the inhibition at 10 µM was 27.9 ± 0.36%. In addition, the inhibition at 1 µM at recombinant human MAO-A is under 0%.
Consider `COc1ccccc1/C=C1\Oc2cc(OCCCN3CCCC3)ccc2C1=O` [Compound 3ac], for which, on recombinant human MAO-B, the inhibition at 10 µM was determined as 32.27 ± 0.23%. Also, on recombinant human MAO-A, the inhibition at 1 µM worked out at 1.31 ± 0.82%.
As to `COc1cccc(/C=C2\Oc3cc(OCCN4CCOCC4)ccc3C2=O)c1` [Compound 3ai], the inhibition at 10 µM at recombinant human MAO-B came to 27.9 ± 0.37%. In addition, on recombinant human MAO-A, the inhibition at 1 µM is 4.1 ± 0.48%.
On the same counts, the results for `COc1ccc(/C=C2\Oc3cc(OCCCN4CCCC4)ccc3C2=O)c(OC)c1` [Compound 3az] are 35.87 ± 0.17% and under 0%.
On to `COc1cccc(/C=C2\Oc3cc(OCCN4CCCC4)ccc3C2=O)c1` [Compound 3af], for which, at recombinant human MAO-B, the inhibition at 10 µM stood at 39.1 ± 0.96%. Besides, the inhibition at 1 µM at recombinant human MAO-A is under 0%.
As for `CCN(CC)CCCOc1ccc2c(c1)O/C(=C\c1cccc(OC)c1)C2=O` [Compound 3ae], the inhibition at 10 µM at recombinant human MAO-B stood at 18.8 ± 0.45%. The inhibition at 1 µM on recombinant human MAO-A was under 0%.
In the case of `COc1cc(/C=C2\Oc3cc(OCCN4CCCC4)ccc3C2=O)cc(OC)c1` [Compound 3at], the inhibition at 10 µM on recombinant human MAO-B was 36.8 ± 0.44%. Besides, the inhibition at 1 µM at recombinant human MAO-A is under 0%.
On the same counts, the results for `COc1cc(/C=C2\Oc3cc(OCCCN4CCCC4)ccc3C2=O)cc(OC)c1` [Compound 3au] are 21.2 ± 0.3% and under 0%.
The like results for `COc1cccc(/C=C2\Oc3cc(OCCCN4CCCCC4)ccc3C2=O)c1` [Compound 3ah] were, in that order, 18.1 ± 1.83% and under 0%.
`COc1ccc(OC)c(/C=C2\Oc3cc(OCCCN4CCCC4)ccc3C2=O)c1` [Compound 3ba]: the inhibition at 10 µM at recombinant human MAO-B amounted to 20.3 ± 0.49%. Further, on recombinant human MAO-A, the inhibition at 1 µM is under 0%.
On the same counts, the results for `COc1ccc(/C=C2\Oc3cc(OCCCCCN4CCCCC4)ccc3C2=O)cc1OC` [Compound 3as, (Z)-2-(3,4-Dimethoxybenzylidene)-6-(5-(piperidin-1-yl)pentoxy)benzofuran-3(2H)-one hydrochloride] are 4.76 ± 1.91% and under 0%.
The like results for `COc1ccc(/C=C2\Oc3cc(OCCCN4CCCC4)ccc3C2=O)cc1OC` [Compound 3ao] were, in that order, 39.2 ± 0.58% and under 0%.
On the same counts, the results for `CCN(CC)CCOc1ccc2c(c1)O/C(=C\c1cccc(OC)c1)C2=O` [Compound 3ad] are 46.09 ± 0.11% and under 0%.
Turning to `COc1ccccc1/C=C1\Oc2cc(OCCN3CCCC3)ccc2C1=O` [Compound 3ab], the inhibition at 10 µM at recombinant human MAO-B was determined as 43 ± 0.55%. The inhibition at 1 µM at recombinant human MAO-A was under 0%.
For the molecule `COc1ccc(OC)c(/C=C2\Oc3cc(OCCN4CCCC4)ccc3C2=O)c1` [Compound 3ax], at recombinant human MAO-B, the inhibition at 10 µM stood at 65.05 ± 0.43% and the IC50 was 3.16 ± 0.036 µM. In addition, at recombinant human MAO-A, the inhibition at 1 µM is under 0% and the IC50 was over 100 µM. On recombinant human MAO-A (setting [1]), the inhibition at 100 µM was about 28%.
In the case of `COc1ccc(/C=C2\Oc3cc(OCCN4CCCC4)ccc3C2=O)c(OC)c1OC` [Compound 3bb], at recombinant human MAO-B, the inhibition at 10 µM was 23.9 ± 0.81%. At recombinant human MAO-A, the inhibition at 1 µM is under 0%.
The like results for `COc1ccc(/C=C2\Oc3cc(OCCN4CCCC4)ccc3C2=O)cc1OC` [Compound 3an] were, in that order, 48.1 ± 1.46% and under 0%.
Consider `COc1cccc(/C=C2\Oc3cc(OCCN4CCCC4)ccc3C2=O)c1OC` [Compound 3av], for which the inhibition at 10 µM on recombinant human MAO-B was 2.61 ± 1.78%. Further, the inhibition at 1 µM on recombinant human MAO-A is 12.6 ± 0.32%.
Consider `COc1ccc(/C=C2\Oc3cc(OCCN4CCCCC4)ccc3C2=O)cc1` [Compound 3am], for which, at recombinant human MAO-B, the inhibition at 10 µM is 20.6 ± 0.79%. The inhibition at 1 µM at recombinant human MAO-A was 0.92 ± 0.83%.
With `COc1cccc(/C=C2\Oc3cc(OCCCN4CCCC4)ccc3C2=O)c1OC` [Compound 3ay], at recombinant human MAO-B, the inhibition at 10 µM came out at 4.37 ± 0.9%. In addition, the inhibition at 1 µM on recombinant human MAO-A was under 0%.
Consider `COc1cccc(/C=C2\Oc3cc(OCCCN4CCCC4)ccc3C2=O)c1` [Compound 3ag], for which the inhibition at 10 µM at recombinant human MAO-B came to 16.99 ± 0.11%. The inhibition at 1 µM at recombinant human MAO-A worked out at 12.2 ± 1.05%.
On the same counts, the results for `COc1ccc(/C=C2\Oc3cc(OCCCN4CCCCC4)ccc3C2=O)cc1OC` [Compound 3aq] are 4.51 ± 1.3% and under 0%.
Take `COc1ccc(/C=C2\Oc3cc(OCCN4CCCCC4)ccc3C2=O)cc1OC` [Compound 3ap]: at recombinant human MAO-B, the inhibition at 10 µM was 50.81 ± 0.44% and the IC50 came to 10.18 ± 0.099 µM. Also, at recombinant human MAO-A, the inhibition at 1 µM is under 0% and the IC50 was over 100 µM. The “MAO-A % Inhibition” value at recombinant human MAO-A (single dose concentration of 100 µM, 100 µM) is recorded as 22.52 ± 0.04%. The inhibition at 100 µM at recombinant human MAO-A (setting [1]) is about 23%.
Regarding `COc1ccc(/C=C2\Oc3cc(OCCCN4CCCC4)ccc3C2=O)cc1` [Compound 3ak], the inhibition at 10 µM on recombinant human MAO-B is 45.64 ± 0.08%. Moreover, the inhibition at 1 µM at recombinant human MAO-A is 9.83 ± 0.64%.
The like results for `COc1ccc(/C=C2\Oc3cc(OCCN4CCCC4)ccc3C2=O)c(OC)c1` [Compound 3aw] were, in that order, 41.6 ± 1.03% and 12.7 ± 0.54%.
Take `COc1ccc(/C=C2\Oc3cc(OCCCCN4CCCCC4)ccc3C2=O)cc1OC` [Compound 3ar]: the inhibition at 10 µM at recombinant human MAO-B was 3.89 ± 1.63%. The inhibition at 1 µM on recombinant human MAO-A was under 0%.
